Experimental data published in ChEMBL document CHEMBL3727355, “Chemokine receptor activity regulator” (2014).

Target: T1, C-C chemokine receptor type 10 (Homo sapiens) (UniProt P46092)
T1 sequence (whole entry): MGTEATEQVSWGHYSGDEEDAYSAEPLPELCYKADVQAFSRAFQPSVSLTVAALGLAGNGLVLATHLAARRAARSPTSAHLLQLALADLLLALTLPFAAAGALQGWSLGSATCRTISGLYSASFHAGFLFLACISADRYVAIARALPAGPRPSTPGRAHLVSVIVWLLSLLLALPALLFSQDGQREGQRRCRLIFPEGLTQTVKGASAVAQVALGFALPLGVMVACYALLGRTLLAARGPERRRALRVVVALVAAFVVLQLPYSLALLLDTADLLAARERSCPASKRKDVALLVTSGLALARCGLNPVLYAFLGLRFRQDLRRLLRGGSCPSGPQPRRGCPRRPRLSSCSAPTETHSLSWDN
Assay: Antagonist activity against human CCR10 expressed in human KJMGER8 cells assessed as inhibition of human recombinant CTACK-induced increase in intracellular calcium level at 100 nmol/L pre-incubated for 30 mins before human recombinant CTACK stimulation for 5 mins by FLIPR assay
Format: functional, cell-based

Compound	inhibition
CCONS(=O)(=O)c1cnn2c(Nc3cc(Cl)ccc3Cl)c(C(=O)N3CCC(c4ccc(F)cc4)CC3)cnc12	> 100%
Cc1ccc(Cl)c(Nc2c(C(=O)N3CCC4(CC3)OCc3ccccc34)cnc3c(S(=O)(=O)NC(=O)NCC(F)(F)F)cnn23)c1	75.3%
CCC(=O)NS(=O)(=O)c1cnn2c(Nc3cc(C(F)(F)F)ccc3Cl)c(C(=O)N3CCC(c4ccc(F)cc4)CC3)cnc12	> 100%
CCNC(=O)NS(=O)(=O)c1cnn2c(Nc3cc(Cl)ccc3F)c(C(=O)N3CCC(c4ccc(F)cc4)CC3)cnc12	> 100%
CCC(=O)NS(=O)(=O)c1cnn2c(Nc3cc(C)ccc3Cl)c(C(=O)N3CC4(C3)CN(c3ccc(F)cc3)C4)cnc12	90.2%
O=C(NS(=O)(=O)c1cnn2c(Nc3cc(Cl)ccc3Cl)c(C(=O)N3CCC4(CC3)OCc3ccccc34)cnc12)C1CC1	> 100%

The next lines start with the values.

inhibition	Compound
> 100%	CCNC(=O)NS(=O)(=O)c1cnn2c(Nc3cc(F)ccc3Cl)c(C(=O)N3CCC(c4ccc(F)cc4)CC3)cnc12
> 100%	CCNS(=O)(=O)c1cnn2c(Nc3ccc(Cl)cc3C)c(C(=O)N3CCC(c4ccc(F)cc4)CC3)cnc12
> 100%	CC1(C(=O)NS(=O)(=O)c2cnn3c(Nc4cc(Cl)ccc4Cl)c(C(=O)N4CCC(c5ccc(F)cc5)CC4)cnc23)COC1
> 100%	Cc1cc(Cl)ccc1Nc1c(C(=O)N2CCC3(CC2)OCc2ccccc23)cnc2c(S(=O)(=O)NC(=O)C3CC3)cnn12
93.4%	Cc1cc(F)ccc1Nc1c(C(=O)N2CCC(c3ccccc3)CC2)cnc2c(S(=O)(=O)NC(=O)C3CC3)cnn12
